From BindingDB's records for doi:10.1016/0014-2999(89)90363-4 (Novo Industri, 1989)
Several values for one entry are separate records, joined by “and”; a condition that tells them apart may be missing. Equal entries are not always repeated. Structures can show the parent of a compound that is named as a salt.

Columns and labels:
[1] = target: Sodium-dependent serotonin transporter (Rattus norvegicus, UniProt P31652)
[2] = target: Norepinephrine transporter (Rattus norvegicus, UniProt Q9JIA2)
Histamine H1 receptor = Histamine H1 receptor (Rattus norvegicus, UniProt P31390)
Chain of Histamine H1 receptor (P31390 whole entry): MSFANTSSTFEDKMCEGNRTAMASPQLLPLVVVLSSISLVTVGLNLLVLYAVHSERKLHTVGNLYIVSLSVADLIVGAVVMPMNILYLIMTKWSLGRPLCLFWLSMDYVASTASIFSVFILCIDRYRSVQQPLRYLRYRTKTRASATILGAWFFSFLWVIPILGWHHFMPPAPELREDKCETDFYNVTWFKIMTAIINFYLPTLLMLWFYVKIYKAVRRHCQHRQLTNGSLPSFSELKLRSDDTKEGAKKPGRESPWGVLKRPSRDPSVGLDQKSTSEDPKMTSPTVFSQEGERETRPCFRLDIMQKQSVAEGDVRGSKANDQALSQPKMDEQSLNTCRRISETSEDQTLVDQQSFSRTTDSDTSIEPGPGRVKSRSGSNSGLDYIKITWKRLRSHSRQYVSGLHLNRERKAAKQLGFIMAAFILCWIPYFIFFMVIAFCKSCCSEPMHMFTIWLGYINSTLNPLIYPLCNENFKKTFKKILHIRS

[3] = target: T1, Alpha-2C adrenergic receptor (Rattus norvegicus, UniProt P22086)
T1 sequence (P22086 whole entry): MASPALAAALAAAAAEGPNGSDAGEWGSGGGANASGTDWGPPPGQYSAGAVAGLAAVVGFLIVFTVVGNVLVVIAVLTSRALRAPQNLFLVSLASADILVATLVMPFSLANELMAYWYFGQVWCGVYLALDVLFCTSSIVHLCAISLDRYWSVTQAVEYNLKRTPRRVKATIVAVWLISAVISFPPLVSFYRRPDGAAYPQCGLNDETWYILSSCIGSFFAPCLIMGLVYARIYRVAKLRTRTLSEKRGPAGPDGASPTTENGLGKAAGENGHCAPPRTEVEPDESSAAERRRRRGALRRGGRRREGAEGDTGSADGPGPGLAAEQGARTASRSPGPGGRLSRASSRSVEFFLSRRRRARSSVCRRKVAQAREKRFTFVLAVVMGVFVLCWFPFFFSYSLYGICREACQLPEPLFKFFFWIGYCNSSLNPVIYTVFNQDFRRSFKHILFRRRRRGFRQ

[4] = target: T2, 5-hydroxytryptamine receptor 1A (Rattus norvegicus, UniProt P19327)
T2 sequence (P19327 whole entry): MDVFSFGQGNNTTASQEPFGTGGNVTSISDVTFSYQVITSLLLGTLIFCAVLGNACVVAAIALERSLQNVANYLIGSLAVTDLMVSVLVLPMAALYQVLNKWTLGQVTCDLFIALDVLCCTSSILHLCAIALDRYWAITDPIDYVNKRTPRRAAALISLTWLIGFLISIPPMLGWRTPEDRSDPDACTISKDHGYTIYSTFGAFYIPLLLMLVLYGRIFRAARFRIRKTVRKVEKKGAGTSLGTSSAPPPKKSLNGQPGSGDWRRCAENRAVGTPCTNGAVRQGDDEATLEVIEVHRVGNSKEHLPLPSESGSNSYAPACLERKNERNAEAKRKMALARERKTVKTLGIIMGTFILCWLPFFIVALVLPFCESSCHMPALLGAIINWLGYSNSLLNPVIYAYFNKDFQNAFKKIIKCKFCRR

[5] = target: Beta-1 adrenergic receptor (Rattus norvegicus, UniProt P18090)
Chain of Beta-1 adrenergic receptor (P18090 whole entry): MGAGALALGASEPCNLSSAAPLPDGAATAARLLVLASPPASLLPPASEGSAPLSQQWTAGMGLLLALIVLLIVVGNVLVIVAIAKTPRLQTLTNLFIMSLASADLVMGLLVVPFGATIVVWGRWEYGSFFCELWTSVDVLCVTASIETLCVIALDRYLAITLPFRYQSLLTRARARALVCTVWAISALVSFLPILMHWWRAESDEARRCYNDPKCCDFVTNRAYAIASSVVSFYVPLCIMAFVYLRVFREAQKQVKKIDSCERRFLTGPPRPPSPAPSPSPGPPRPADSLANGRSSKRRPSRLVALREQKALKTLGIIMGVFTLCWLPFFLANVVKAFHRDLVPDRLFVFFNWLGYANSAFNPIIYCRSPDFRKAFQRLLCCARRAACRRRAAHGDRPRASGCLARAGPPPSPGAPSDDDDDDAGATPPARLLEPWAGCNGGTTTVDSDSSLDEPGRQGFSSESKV

[6] = target: Gamma-aminobutyric acid receptor subunit alpha-1 (Rattus norvegicus, UniProt P62813)
Chain of Gamma-aminobutyric acid receptor subunit alpha-1 (P62813 whole entry): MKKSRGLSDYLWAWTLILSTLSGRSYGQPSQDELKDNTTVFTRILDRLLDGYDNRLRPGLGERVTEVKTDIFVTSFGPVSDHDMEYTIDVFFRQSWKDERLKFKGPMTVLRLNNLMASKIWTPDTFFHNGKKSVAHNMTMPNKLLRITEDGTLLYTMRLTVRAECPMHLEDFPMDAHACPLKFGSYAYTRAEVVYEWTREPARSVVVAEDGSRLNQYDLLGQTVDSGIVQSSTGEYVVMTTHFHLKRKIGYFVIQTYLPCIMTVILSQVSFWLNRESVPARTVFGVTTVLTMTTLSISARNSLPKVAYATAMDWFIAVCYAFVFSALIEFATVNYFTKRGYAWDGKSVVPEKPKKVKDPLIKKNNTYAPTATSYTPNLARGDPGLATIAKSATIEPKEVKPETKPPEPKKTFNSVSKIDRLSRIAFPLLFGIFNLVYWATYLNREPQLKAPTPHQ

D(1A) dopamine receptor = D(1A) dopamine receptor (Rattus norvegicus, UniProt P18901)
Chain of D(1A) dopamine receptor (P18901 whole entry): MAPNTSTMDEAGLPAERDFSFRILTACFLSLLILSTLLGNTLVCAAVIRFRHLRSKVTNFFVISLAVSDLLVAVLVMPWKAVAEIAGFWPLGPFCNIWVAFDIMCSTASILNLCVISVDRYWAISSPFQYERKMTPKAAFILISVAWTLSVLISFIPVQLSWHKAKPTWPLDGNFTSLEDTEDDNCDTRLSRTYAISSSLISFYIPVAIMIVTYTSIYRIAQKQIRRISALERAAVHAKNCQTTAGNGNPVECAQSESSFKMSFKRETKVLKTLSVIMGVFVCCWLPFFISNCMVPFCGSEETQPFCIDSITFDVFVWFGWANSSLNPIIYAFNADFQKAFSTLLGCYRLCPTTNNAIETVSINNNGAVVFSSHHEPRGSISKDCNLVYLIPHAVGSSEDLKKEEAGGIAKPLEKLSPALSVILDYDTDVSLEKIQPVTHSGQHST

D(2) dopamine receptor = D(2) dopamine receptor (Rattus norvegicus, UniProt P61169)
Chain of D(2) dopamine receptor (P61169 whole entry): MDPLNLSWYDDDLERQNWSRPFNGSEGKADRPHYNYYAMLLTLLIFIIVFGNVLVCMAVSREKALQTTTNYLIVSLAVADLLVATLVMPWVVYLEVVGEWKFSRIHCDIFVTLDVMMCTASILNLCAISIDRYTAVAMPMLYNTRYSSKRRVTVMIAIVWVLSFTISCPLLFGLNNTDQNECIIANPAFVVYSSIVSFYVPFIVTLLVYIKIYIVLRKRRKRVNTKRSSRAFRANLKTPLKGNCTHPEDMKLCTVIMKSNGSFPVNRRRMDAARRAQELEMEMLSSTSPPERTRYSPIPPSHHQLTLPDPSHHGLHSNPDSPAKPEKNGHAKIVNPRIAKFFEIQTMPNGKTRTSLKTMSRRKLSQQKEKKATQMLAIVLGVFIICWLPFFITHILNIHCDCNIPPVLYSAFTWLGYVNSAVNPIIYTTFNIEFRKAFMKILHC

[7] = target: T3, Alpha-1A adrenergic receptor (Rattus norvegicus, UniProt P43140)
T3 sequence (P43140 whole entry): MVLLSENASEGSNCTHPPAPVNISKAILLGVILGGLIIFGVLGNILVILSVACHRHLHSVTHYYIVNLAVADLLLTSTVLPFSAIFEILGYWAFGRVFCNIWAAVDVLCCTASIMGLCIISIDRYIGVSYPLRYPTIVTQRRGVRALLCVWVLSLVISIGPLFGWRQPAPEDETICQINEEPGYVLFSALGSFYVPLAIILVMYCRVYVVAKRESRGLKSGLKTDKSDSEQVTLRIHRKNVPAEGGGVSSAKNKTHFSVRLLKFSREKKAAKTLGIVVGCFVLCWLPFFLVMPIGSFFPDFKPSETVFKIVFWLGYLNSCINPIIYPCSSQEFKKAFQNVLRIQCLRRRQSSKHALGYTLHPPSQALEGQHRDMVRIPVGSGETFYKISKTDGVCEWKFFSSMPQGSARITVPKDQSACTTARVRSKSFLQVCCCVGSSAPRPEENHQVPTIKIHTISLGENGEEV

[8] = target: 5-hydroxytryptamine receptor 2A (Rattus norvegicus, UniProt P14842)
Chain of 5-hydroxytryptamine receptor 2A (P14842 whole entry): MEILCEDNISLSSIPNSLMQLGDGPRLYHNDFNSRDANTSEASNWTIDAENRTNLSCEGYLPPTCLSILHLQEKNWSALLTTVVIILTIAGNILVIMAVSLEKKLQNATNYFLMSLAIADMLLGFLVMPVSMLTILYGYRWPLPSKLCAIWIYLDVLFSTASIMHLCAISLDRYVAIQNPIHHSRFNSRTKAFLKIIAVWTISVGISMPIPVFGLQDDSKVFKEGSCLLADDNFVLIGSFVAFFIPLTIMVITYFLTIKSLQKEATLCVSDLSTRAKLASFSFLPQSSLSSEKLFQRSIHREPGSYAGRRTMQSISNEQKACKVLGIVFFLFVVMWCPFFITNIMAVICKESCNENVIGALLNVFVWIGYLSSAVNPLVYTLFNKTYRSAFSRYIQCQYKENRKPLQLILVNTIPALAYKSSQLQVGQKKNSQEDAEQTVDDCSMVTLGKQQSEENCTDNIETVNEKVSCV

[9] = target: T4, Muscarinic acetylcholine receptor M2 (Rattus norvegicus, UniProt P10980)
T4 sequence (P10980 whole entry): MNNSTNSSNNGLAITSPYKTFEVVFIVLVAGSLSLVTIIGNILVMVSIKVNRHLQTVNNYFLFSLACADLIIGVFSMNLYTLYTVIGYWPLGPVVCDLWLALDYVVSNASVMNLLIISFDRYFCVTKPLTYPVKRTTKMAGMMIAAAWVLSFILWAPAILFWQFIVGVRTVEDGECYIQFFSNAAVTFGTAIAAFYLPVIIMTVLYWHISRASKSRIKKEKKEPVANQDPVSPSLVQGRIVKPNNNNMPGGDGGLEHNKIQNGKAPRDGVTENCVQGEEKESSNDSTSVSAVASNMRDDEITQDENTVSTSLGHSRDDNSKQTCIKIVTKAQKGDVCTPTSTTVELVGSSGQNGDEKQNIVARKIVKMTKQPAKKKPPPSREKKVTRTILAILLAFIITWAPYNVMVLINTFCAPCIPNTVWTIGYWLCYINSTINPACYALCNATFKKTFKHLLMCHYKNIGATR

Chain of Sodium-dependent serotonin transporter (P31652 whole entry): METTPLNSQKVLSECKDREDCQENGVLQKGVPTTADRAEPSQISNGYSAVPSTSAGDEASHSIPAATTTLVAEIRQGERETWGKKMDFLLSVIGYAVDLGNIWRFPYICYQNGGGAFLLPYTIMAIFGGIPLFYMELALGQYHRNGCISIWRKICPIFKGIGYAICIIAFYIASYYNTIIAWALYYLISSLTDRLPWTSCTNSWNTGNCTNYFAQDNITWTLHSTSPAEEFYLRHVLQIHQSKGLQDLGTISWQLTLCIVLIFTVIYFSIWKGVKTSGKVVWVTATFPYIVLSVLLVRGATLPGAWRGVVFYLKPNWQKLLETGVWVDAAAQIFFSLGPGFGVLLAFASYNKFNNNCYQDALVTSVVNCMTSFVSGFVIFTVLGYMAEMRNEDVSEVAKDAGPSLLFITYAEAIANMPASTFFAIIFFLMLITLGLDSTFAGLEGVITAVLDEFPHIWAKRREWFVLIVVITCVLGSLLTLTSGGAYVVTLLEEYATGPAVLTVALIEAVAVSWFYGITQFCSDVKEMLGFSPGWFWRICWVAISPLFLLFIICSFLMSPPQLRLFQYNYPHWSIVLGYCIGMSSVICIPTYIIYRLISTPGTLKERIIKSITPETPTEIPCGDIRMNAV

## NCCc1ccc(O)c(O)c1
[1]
  Ki: 1000 nM
[2]
  Ki: 1000 nM

## Fc1ccc(C(OCCN2CCN(CCCc3ccccc3)CC2)c2ccc(F)cc2)cc1 [Vanoxerine]
Histamine H1 receptor
  Ki: 18 nM
[3]
  Ki: 7 µM
[4]
  Ki: 3.6 µM
[5]
  Ki: > 10 µM
[6]
  Ki: > 10 µM and 8 µM
D(1A) dopamine receptor
  Ki: 1 µM
D(2) dopamine receptor
  Ki: 270 nM
[7]
  Ki: 3.5 µM
[8]
  Ki: 189 nM
[9]
  Ki: > 10 µM

## CC(NC(C)(C)C)C(=O)c1cccc(Cl)c1 (stereo not drawn) [BUPROPION HYDROCHLORIDE]
[3]
  Ki: > 10 µM
[5]
  Ki: > 10 µM
[2]
  Ki: 940 nM
D(1A) dopamine receptor
  Ki: > 10 µM
D(2) dopamine receptor
  Ki: > 10000 nM
[7]
  Ki: > 10 µM
[9]
  Ki: > 10 µM

## CN(C)CCCC1(c2ccc(F)cc2)OCc2cc(C#N)ccc21 (stereo not drawn) [CITALOPRAM HYDROBROMIDE]
[3]
  Ki: > 10 µM
[4]
  Ki: > 10 µM
[5]
  Ki: > 10 µM
[6]
  Ki: > 10 µM
D(1A) dopamine receptor
  Ki: > 10 µM
D(2) dopamine receptor
  Ki: > 10000 nM
[7]
  Ki: > 10 µM
[9]
  Ki: > 10 µM

## COc1ccc2c(c1)CN(C)CC2c1ccc(Cl)c(Cl)c1 (stereo not drawn)
[2]
  Ki: 15.7 nM

## CN1Cc2c(N)cccc2[C@H](c2ccccc2)C1 [(+/-)-2-Methyl-4-phenyl-1,2,3,4-tetrahydro-isoquinolin-8-ylamine]
Histamine H1 receptor
  Ki: 35 nM
[3]
  Ki: > 10 µM
[4]
  Ki: > 10 µM
[5]
  Ki: > 10 µM
[6]
  Ki: > 10 µM
[2]
  Ki: 11.2 nM
D(1A) dopamine receptor
  Ki: > 10 µM
D(2) dopamine receptor
  Ki: > 10000 nM
[7]
  Ki: > 10 µM
[9]
  Ki: > 10 µM

## C[C@H](N)Cc1ccccc1 [beta-aminopropylbenzene]
[2]
  Ki: 59 nM and 58 nM

## NCC(O)c1ccc(O)c(O)c1 (stereo not drawn) [Noradrenaline,(+)]
[1]
  Ki: 1000 nM
[2]
  Ki: 250 nM

## CN(C)CCCN1c2ccccc2CCc2ccccc21
Histamine H1 receptor
  Ki: 2 nM
[3]
  Ki: 5.7 µM
[4]
  Ki: > 10 µM
[5]
  Ki: > 10 µM
[6]
  Ki: > 10 µM
D(1A) dopamine receptor
  Ki: 3 µM
D(2) dopamine receptor
  Ki: 942 nM
[9]
  Ki: 2.3 µM

## COC(=O)[C@@H](c1ccccc1)[C@@H]1CCCCN1
[1]
  Ki: 1000 nM
[2]
  Ki: 103 nM

## O[C@]1(c2ccc(Cl)cc2)c2ccccc2C2=NCCN21 [Mazanor]
[2]
  Ki: 8 nM

## NCCc1c[nH]c2ccc(O)cc12 [[3H]-5-HT]
[2]
  Ki: 1000 nM
